Laboratory results published in US10821091B2, “Retinoid compositions and methods of increasing immune cell-mediated killing of IDH mutant cancer cells” (UNIVERSITY OF PITTSBURGH—OF THE COMMONWEALTH SYSTEM OF …, priority 2017, dated 2020).
“Also recorded” adds a separate entry of the source.

Legend:
[1] = tested on: diffuse IDH mutant glioma; test: ATRA therapy in a human patient, MRI before and after; assay type: in vivo; conditions: 40 mg/m2 ATRA, 21 days on, 7 days off, three months
Method: A patient with diffuse IDH mutant glioma was treated with 40 mg/m2 ATRA on a treatment cycle of 21 days on, 7 days off. MRI images of the patient's brain were performed before (FIG. 12A) and after (FIG. 12B) ATRA treatment.

[2] = mouse, in vivo
Method: Mice. 6-8 week old Balb/c nude mice (CAnN.Cg-Foxn1nu/Crl) were purchased from Charles River Laboratories. Mice were injected with 10^6 IDH WT or mutant primary glioma cells sub-cutaneously in the right flank. When the tumors were about 25 mm^2, ATRA treatment was started. 10 mg/Kg ATRA was administered to mice intra-peritoneally (i.p.) every alternate day until termination of the experiment. DMSO-treated mice were used as controls. The mice were monitored for signs of drug toxicity such as weight-loss, lethargy, skin lesions and diarrhea. The tumors were measured every 3 days, and the mice were sacrificed when the tumors were about 400 mm^2. For NK depletion experiments, 6-week old B6 nude mice (B6.Cg-Foxn1nu/J) were purchased from The Jackson Laboratory. NK depletion was performed by injecting mice with 200 μg of anti-NK1.1 antibody (Biolegend) i.p. on the day ATRA treatment was started. Mice injected with 200 μg of an isotype antibody were used as controls. Mice were bled and evaluated for circulating NKs by flow cytometry.
Retinoic acid has been used as a chemotherapeutic agent in a wide variety of cancers, in pre-clinical as well as clinical applications. 13-cis-RA is the most common form of RA used in clinics, and is effective in a variety of neoplasms. Therefore, the efficacy of 13-cis RA was compared with ATRA and Bexarotene (a synthetic retinoic acid analogue) in IDH mutant gliomas.

[3] = tested on: IDH mutant (HT-1080, R132C IDH1 mutation) chondrosarcoma cells; test: Viability and apoptosis of chondrosarcoma cells; assay type: cell-based; conditions: 48 hours
Method: IDH mutant (HT-1080, R132C IDH1 mutation) chondrosarcoma cells were treated with different doses of ATRA or DMSO for 48 hours. After treatment, cells were evaluated for viability (FIG. 11A) and apoptosis by caspase activity (FIG. 11B). […] Additionally, IDH WT cells and IDH mutant chondrosarcoma cells were treated with different doses of ATRA or DMSO for 48 hours.

IDH mutant tumors = test: Comparison of RA isoforms in tumor-bearing mice; assay type: in vivo
Text: Mice. […] DMSO-treated mice were used as controls.
Therefore, the efficacy of two other RA isoforms were compared with ATRA in IDH mutant gliomas. […] However, treatment of IDH mutant tumors with all three retinoic acid isoforms reduced tumor size (the bottom 3 data lines at Day 40 having endpoints below 100 mm^2). […] The changes in tumor microenvironment induced by ATRA differed from the other RA isoforms as well.

[4] = tested on: IDH MUT (IDH1 R132H) tumors; test: CCL2 neutralization in ATRA-treated tumor-bearing mice; assay type: in vivo; conditions: 10 mg/kg ATRA every alternate day, 1 μg anti-CCL2 neutralizing antibody
Method: IDH WT and MUT (IDH1 R132H) tumor-bearing mice were treated with 10 mg/kg ATRA every alternate day starting on day 18 after tumor inoculation. Mice were also injected with 1 μg anti-CCL2 neutralizing antibody (or anti isotype antibody) on the 1st day of ATRA treatment.

[5] = tested on: IDH mutant chondrosarcoma cells (HT-1080 and SW 1353); test: NK killing of chondrosarcoma cells; assay type: cell-based; conditions: different doses of ATRA, 48 hours; at least two chondrosarcoma cell lines
Method: IDH WT chondrosarcoma cells and IDH mutant chondrosarcoma cells were treated with different doses of ATRA or DMSO for 48 hours and were evaluated for killing by NK cells (FIG. 11F). NK cytotoxicity on IDH WT chondrosarcoma cells and IDH mutant chondrosarcoma cells was evaluated.

[6] = tested on: ATRA-treated IDH mutant cells; test: Transwell chemotaxis assay of immune cell subsets; assay type: cell-based, human
Method: ATRA increases chemotaxis towards IDH mutant cells in a CCL2-dependent manner. […] To confirm these findings, chemotaxis assays were performed in vitro. ATRA-treated IDH mutant or WT cells were plated in the bottom well of a transwell. Different immune cell subsets (as indicated) were placed in the top chamber at a 10:1 E:T ratio. After 48 hours, cells from the bottom chamber were harvested and analyzed by flow cytometry. […] To evaluate the mechanisms of changes in chemotaxis induced by ATRA, a chemokine array was performed. Supernatants from ATRA- (or DMSO)-treated WT and IDH mutant cultures were used to assess changes in chemokine expression using a chemokine array kit (R&D systems). Results were interpreted visually as well as quantified using an imaging software (ImageJ). […] To substantiate the role of CCL2 in NK and T cell chemotaxis, transwell assays were repeated as described earlier, in the presence of CCL2-blocking antibody (R&D systems).

[7] = towards ATRA-treated IDH mutant cells vs DMSO-treated controls, 48 hours
[8] = towards ATRA-treated IDH mutant cells, 48 hours

CC1=C(/C=C/C(C)=C/C=C/C(C)=C/C(=O)O)C(C)(C)CCC1 [ATRA, all-trans retinoic acid]
glioma tumor on MRI [1]: reduction in the size and severity of the glioma tumor | toxicity in treated mice (weight loss and wasting) [2]: not observed in ATRA-treated mice | apoptosis by caspase activity ([3]; HT-1080, different doses): induced apoptotic cell death | cell viability ([3]; HT-1080, different doses): decreased cell viability | 7-AAD levels (flow cytometry) ([3]; IDH WT and IDH mutant chondrosarcoma cells, different doses): increased 7-AAD levels corresponding to increased apoptotic cell death in a dose-dependent manner | efficacy at retarding IDH mutant tumor growth compared among RA isoforms (IDH mutant tumors; ATRA vs 13-cis RA and bexarotene): significantly more effective at retarding IDH mutant tumor growth in vivo; also recorded: the most effective RA isoform in terms of tumor growth | tumor microenvironment immune cells (IDH mutant tumors; after ATRA treatment, compared with 13-cis RA and bexarotene): lower MDSCs and monocytes, and higher DCs and macrophages | gene expression levels of ULBP3 ex vivo (IDH mutant tumors; compared with 13-cis RA and bexarotene): higher gene expression levels of ULBP3 | killing of IDH mutant cells by NK cells (IDH mutant tumors; ex vivo co-culture with human NKs, compared among RA isoforms): significantly increased killing of IDH mutant cells by NK cells; also recorded: highest level of NK-mediated killing | tumor stasis with CCL2 blockade [4]: CCL2 blockade reversed ATRA-mediated tumor stasis | NK-mediated cell killing [5]: increased NK-mediated cell killing of IDH mutant chondrosarcoma cells | NK and T cell migration in the presence of CCL2-blocking antibody ([6]; ATRA-treated IDH mutant cells): reversed the increased NK (FIG. 6M) and T cell (FIG. 6N) migration | migration of Tregs in the presence of CCL2-blocking antibody ([6]; ATRA-treated IDH mutant cells): did not impact the migration of Tregs | migration of CD8+ T cells [6, 7]: increased migration | migration of M1 macrophages [6, 7]: increased migration | migration of NK cells [6, 7]: increased migration | migration of M2 macrophages [6, 8]: decreased migration | migration of Monocytes [6, 8]: decreased migration | migration of Tregs [6, 8]: decreased migration
